What was measured:
oval-leafed pondweed [1] = assay: Test Example 2: herbicidal activity, application during weed generation under submerged conditions (Table 17, symbol C); assay type: in vivo, oval-leafed pondweed (Monochoria vaginalis); details: AAH 320 g/ha; application during weed generation, submerged conditions
Method in brief: (§1)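 Mixed weed seedlings in alluvial soil under a 4 cm water layer, greenhouse-grown at 25–30° C. Compound given as a diluted emulsion into the floodwater at the 1–2 leaf stage; response graded after three weeks.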

velvetleaf [2] = assay: Test Example 5: herbicidal effect by foliage application, plastic box (Table 20, symbol M); assay type: in vivo, velvetleaf (Abutilon theophrasti); details: foliage application, three weeks after application; for M: velvetleaf, herbicidal effect grade: 320 g/ha
Method in brief: (§2)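 Post-emergence foliar test in sterilized diluvial soil. Compound applied as water-diluted emulsion at a predetermined rate to 14-day-old plants; evaluation at three weeks.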

southern crabgrass [3] = assay: Test Example 5: herbicidal effect by foliage application, plastic box (Table 20, symbol F); assay type: in vivo, southern crabgrass (Digitaria ciliaris); details: foliage application, three weeks after application; for F: southern crabgrass, herbicidal effect grade: 320 g/ha
Method in brief: as §2

chickweed = assay: Test Example 5: herbicidal effect by foliage application, plastic box (Table 20, symbol P); assay type: in vivo, common chickweed (Stellaria media); details: foliage application, three weeks after application
Method in brief: as §2

barnyard grass [4] = assay: Test Example 5: herbicidal effect by foliage application, plastic box (Table 20, symbol H); assay type: in vivo, barnyard grass (Echinochloa crus-galli); details: foliage application, three weeks after application; for H: barnyard grass, herbicidal effect grade: 320 g/ha
Method in brief: as §2

Japanese bulrush [5] = assay: Test Example 2: herbicidal activity, application during weed generation under submerged conditions (Table 17, symbol B); assay type: in vivo, Japanese bulrush (Schoenoplectus juncoides); details: AAH 320 g/ha; application during weed generation, submerged conditions
Method in brief: as §1

Chinese sprangletop = assay: Test Example 3: herbicidal effect by foliage application, Wagner pot (Table 18, symbol D); assay type: in vivo, chinese sprangletop (Leptochloa chinensis); details: for herbicidal effect on D: Chinese sprangletop: amount of applied herbicide 320 g/ha
Method in brief: (§3)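 Plants were sown in alluvial soil held under 0.1–0.5 cm standing water and grown 14 days in a greenhouse at 25–30 °C. An emulsifiable formulation, water-diluted to the set dose, was then sprayed onto the foliage, and effects were scored three weeks later using previously defined criteria.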

windgrass = assay: Test Example 5: herbicidal effect by foliage application, plastic box (Table 20, symbol L); assay type: in vivo, windgrass (Apera spica-venti); details: foliage application, three weeks after application
Method in brief: as §2

rice flat sedge = assay: Test Example 3: herbicidal effect by foliage application, Wagner pot (Table 18, symbol E); assay type: in vivo, rice flat sedge (Cyperus iria); details: for herbicidal effect on E: rice flat sedge: amount of applied herbicide 320 g/ha
Method in brief: as §3

barnyard grass [6] = assay: Test Example 3: herbicidal effect by foliage application, Wagner pot (Table 18, symbol H); assay type: in vivo, barnyard grass (Echinochloa crus-galli); details: for herbicidal effect on H: barnyard grass: amount of applied herbicide 320 g/ha
Method in brief: as §3

green foxtail [7] = assay: Test Example 5: herbicidal effect by foliage application, plastic box (Table 20, symbol G); assay type: in vivo, green foxtail (Setaria viridis); details: foliage application, three weeks after application; for G: green foxtail, herbicidal effect grade: 320 g/ha
Method in brief: as §2

late watergrass [8] = assay: Test Example 2: herbicidal activity, application during weed generation under submerged conditions (Table 17, symbol A); assay type: in vivo, late watergrass (Echinochloa oryzicola); details: AAH 320 g/ha; application during weed generation, submerged conditions
Method in brief: as §1

redroot pigweed [9] = assay: Test Example 5: herbicidal effect by foliage application, plastic box (Table 20, symbol N); assay type: in vivo, redroot pigweed (Amaranthus retroflexus); details: foliage application, three weeks after application; for N: redroot pigweed, herbicidal effect grade: 320 g/ha
Method in brief: as §2

blackgrass = assay: Test Example 5: herbicidal effect by foliage application, plastic box (Table 20, symbol J); assay type: in vivo, blackgrass (Alopecurus myosuroides); details: foliage application, three weeks after application
Method in brief: as §2

Japanese bulrush [10] = assay: Test Example 1: herbicidal activity, application before weed generation under submerged conditions (Table 16, symbol B); assay type: in vivo, Japanese bulrush (Schoenoplectus juncoides); details: for Herbicidal effect, B: Japanese bulrush: amount of applied herbicide 320 g/ha
Method in brief: (§4)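 Emulsion formulation, water-diluted to set dose, was put onto the flooded surface (4 cm depth, alluvial soil) the same day weeds were sown and 2.5-leaf rice transplanted. After 3 weeks at 25-30 °C under glass, each species was rated 0 (≤5% kill) to 5 (≥90% kill).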

persian speedwell = assay: Test Example 5: herbicidal effect by foliage application, plastic box (Table 20, symbol R); assay type: in vivo, Persian speedwell (Veronica persica); details: foliage application, three weeks after application
Method in brief: as §2

wild oat = assay: Test Example 5: herbicidal effect by foliage application, plastic box (Table 20, symbol I); assay type: in vivo, wild oat (Avena fatua); details: foliage application, three weeks after application
Method in brief: as §2

lambsquarters [11] = assay: Test Example 5: herbicidal effect by foliage application, plastic box (Table 20, symbol O); assay type: in vivo, lambsquarters (Chenopodium album); details: foliage application, three weeks after application; for O: lambsquarters, herbicidal effect grade: 320 g/ha
Method in brief: as §2

oval-leafed pondweed [12] = assay: Test Example 1: herbicidal activity, application before weed generation under submerged conditions (Table 16, symbol C); assay type: in vivo, oval-leafed pondweed (Monochoria vaginalis); details: for Herbicidal effect, C: oval-leafed pondweed: amount of applied herbicide 320 g/ha
Method in brief: as §4

late watergrass [13] = assay: Test Example 1: herbicidal activity, application before weed generation under submerged conditions (Table 16, symbol A); assay type: in vivo, late watergrass (Echinochloa oryzicola); details: for Herbicidal effect, A: late watergrass: amount of applied herbicide 320 g/ha
Method in brief: as §4

Italian ryegrass = assay: Test Example 5: herbicidal effect by foliage application, plastic box (Table 20, symbol K); assay type: in vivo, Italian ryegrass (Lolium multiflorum); details: foliage application, three weeks after application
Method in brief: as §2

barnyard grass [14] = assay: Test Example 4: herbicidal effect by soil treatment (Table 19, symbol H); assay type: in vivo, barnyard grass (Echinochloa crus-galli); details: amount of applied herbicide 320 g/ha
Method in brief: (§5)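 Scoring uses the grading scale of an earlier test, three weeks post-application. Treatment consists of spraying a diluted emulsion formulation across the surface of sterilized diluvial soil in which seeds are buried near 1.5 cm deep; boxes are kept in a greenhouse between 25° C. and 30° C.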

lambsquarters [15] = assay: Test Example 4: herbicidal effect by soil treatment (Table 19, symbol O); assay type: in vivo, lambsquarters (Chenopodium album); details: amount of applied herbicide 320 g/ha
Method in brief: as §5

southern crabgrass [16] = assay: Test Example 4: herbicidal effect by soil treatment (Table 19, symbol F); assay type: in vivo, southern crabgrass (Digitaria ciliaris); details: amount of applied herbicide 320 g/ha
Method in brief: as §5

green foxtail [17] = assay: Test Example 4: herbicidal effect by soil treatment (Table 19, symbol G); assay type: in vivo, green foxtail (Setaria viridis); details: amount of applied herbicide 320 g/ha
Method in brief: as §5

velvetleaf [18] = assay: Test Example 4: herbicidal effect by soil treatment (Table 19, symbol M); assay type: in vivo, velvetleaf (Abutilon theophrasti); details: amount of applied herbicide 320 g/ha
Method in brief: as §5

redroot pigweed [19] = assay: Test Example 4: herbicidal effect by soil treatment (Table 19, symbol N); assay type: in vivo, redroot pigweed (Amaranthus retroflexus); details: amount of applied herbicide 320 g/ha
Method in brief: as §5

Compound	herbicidal effect rating, C: oval-leafed pondweed (oval-leafed pondweed [1])	herbicidal effect rating, B: Japanese bulrush (Japanese bulrush [5])	herbicidal effect rating, A: late watergrass (late watergrass [8])	M: velvetleaf, herbicidal effect grade (velvetleaf [2])	F: southern crabgrass, herbicidal effect grade (southern crabgrass [3])	H: barnyard grass, herbicidal effect grade (barnyard grass [4])	herbicidal effect on D: Chinese sprangletop (Chinese sprangletop)	herbicidal effect on E: rice flat sedge (rice flat sedge)	herbicidal effect on H: barnyard grass (barnyard grass [6])	G: green foxtail, herbicidal effect grade (green foxtail [7])	N: redroot pigweed, herbicidal effect grade (redroot pigweed [9])	Herbicidal effect, B: Japanese bulrush (Japanese bulrush [10])	O: lambsquarters, herbicidal effect grade (lambsquarters [11])	Herbicidal effect, C: oval-leafed pondweed (oval-leafed pondweed [12])	Herbicidal effect, A: late watergrass (late watergrass [13])	also measured
CCCC(=O)Oc1c(C)nn(C)c(=O)c1-c1c(-c2ccc([Si](C)(C)C)cc2)sc2ccccc12 [1-154]	0 (Herbicidal rate of 5% or less (almost no effect))	2 (Herbicidal rate of 20% or more and less than 40%)	0 (Herbicidal rate of 5% or less (almost no effect))													M: velvetleaf, herbicidal effect (velvetleaf [2]; AAH 320 g/ha): 0 (Herbicidal rate of 5% or less (almost no effect)); F: southern crabgrass, herbicidal effect (southern crabgrass [3]; AAH 320 g/ha): 0 (Herbicidal rate of 5% or less (almost no effect)); P: chickweed, herbicidal effect (chickweed; AAH 320 g/ha): 0 (Herbicidal rate of 5% or less (almost no effect)); H: barnyard grass, herbicidal effect (barnyard grass [4]; AAH 320 g/ha): 0 (Herbicidal rate of 5% or less (almost no effect)); herbicidal effect on D (Chinese sprangletop), rating 0-5 (Chinese sprangletop; 320 g/ha): 3 (Herbicidal rate of 40% or more and less than 70%); L: windgrass, herbicidal effect (windgrass; AAH 320 g/ha): 0 (Herbicidal rate of 5% or less (almost no effect)); herbicidal effect on E (rice flat sedge), rating 0-5 (rice flat sedge; 320 g/ha): 2 (Herbicidal rate of 20% or more and less than 40%); herbicidal effect on H (barnyard grass), rating 0-5 (barnyard grass [6]; 320 g/ha): 2 (Herbicidal rate of 20% or more and less than 40%); G: green foxtail, herbicidal effect (green foxtail [7]; AAH 320 g/ha): 0 (Herbicidal rate of 5% or less (almost no effect)); N: redroot pigweed, herbicidal effect (redroot pigweed [9]; AAH 320 g/ha): 3 (Herbicidal rate of 40% or more and less than 70%); J: blackgrass, herbicidal effect (blackgrass; AAH 320 g/ha): 0 (Herbicidal rate of 5% or less (almost no effect)); Herbicidal effect on B: Japanese bulrush (grade 0-5) (Japanese bulrush [10]; 320 g/ha applied herbicide): 0 (Herbicidal rate of 5% or less (almost no effect)); R: persian speedwell, herbicidal effect (persian speedwell; AAH 320 g/ha): 4 (Herbicidal rate of 70% or more and less than 90%); I: wild oat, herbicidal effect (wild oat; AAH 320 g/ha): 0 (Herbicidal rate of 5% or less (almost no effect)); O: lambsquarters, herbicidal effect (lambsquarters [11]; AAH 320 g/ha): 4 (Herbicidal rate of 70% or more and less than 90%); Herbicidal effect on C: oval-leafed pondweed (grade 0-5) (oval-leafed pondweed [12]; 320 g/ha applied herbicide): 0 (Herbicidal rate of 5% or less (almost no effect)); Herbicidal effect on A: late watergrass (grade 0-5) (late watergrass [13]; 320 g/ha applied herbicide): 2 (Herbicidal rate of 20% or more and less than 40%); K: Italian ryegrass, herbicidal effect (Italian ryegrass; AAH 320 g/ha): 0 (Herbicidal rate of 5% or less (almost no effect))
CCCC(=O)Oc1c(CC)nn(C)c(=O)c1-c1c(-c2ccc(Cl)cc2)sc2ccc(F)cc12 [2-409]	3 (Herbicidal rate of 40% or more and less than 70%)	3 (Herbicidal rate of 40% or more and less than 70%)	2 (Herbicidal rate of 20% or more and less than 40%)	5 (Herbicidal rate of 90% or more (almost completely withered))	3 (Herbicidal rate of 40% or more and less than 70%)	3 (Herbicidal rate of 40% or more and less than 70%)	4 (Herbicidal rate of 70% or more and less than 90%)	5 (Herbicidal rate of 90% or more (almost completely withered))	5 (Herbicidal rate of 90% or more (almost completely withered))	4 (Herbicidal rate of 70% or more and less than 90%)	5 (Herbicidal rate of 90% or more (almost completely withered))	3 (Herbicidal rate of 40% or more and less than 70%)	4 (Herbicidal rate of 70% or more and less than 90%)	2 (Herbicidal rate of 20% or more and less than 40%)	3 (Herbicidal rate of 40% or more and less than 70%)	P: chickweed, herbicidal effect grade (chickweed; 320 g/ha): 4 (Herbicidal rate of 70% or more and less than 90%); L: windgrass, herbicidal effect grade (windgrass; 320 g/ha): 0 (Herbicidal rate of 5% or less (almost no effect)); J: blackgrass, herbicidal effect grade (blackgrass; 320 g/ha): 0 (Herbicidal rate of 5% or less (almost no effect)); R: persian speedwell, herbicidal effect grade (persian speedwell; 320 g/ha): 4 (Herbicidal rate of 70% or more and less than 90%); I: wild oat, herbicidal effect grade (wild oat; 320 g/ha): 0 (Herbicidal rate of 5% or less (almost no effect)); K: Italian ryegrass, herbicidal effect grade (Italian ryegrass; 320 g/ha): 1 (Herbicidal rate of 5% or more and less than 20%)
COCCS(=O)(=O)c1ccc(-c2sc3ccc(F)cc3c2-c2c(O)c(C)nn(C)c2=O)cc1 [2-455]	0 (Herbicidal rate of 5% or less (almost no effect))	0 (Herbicidal rate of 5% or less (almost no effect))	3 (Herbicidal rate of 40% or more and less than 70%)	4 (Herbicidal rate of 70% or more and less than 90%)	4 (Herbicidal rate of 70% or more and less than 90%)	4 (Herbicidal rate of 70% or more and less than 90%)	2 (Herbicidal rate of 20% or more and less than 40%)	0 (Herbicidal rate of 5% or less (almost no effect))	5 (Herbicidal rate of 90% or more (almost completely withered))	3 (Herbicidal rate of 40% or more and less than 70%)	5 (Herbicidal rate of 90% or more (almost completely withered))	0 (Herbicidal rate of 5% or less (almost no effect))	3 (Herbicidal rate of 40% or more and less than 70%)	0 (Herbicidal rate of 5% or less (almost no effect))	3 (Herbicidal rate of 40% or more and less than 70%)	herbicidal effect, H: barnyard grass (barnyard grass [14]): 0 (Herbicidal rate of 5% or less (almost no effect)); herbicidal effect, O: lambsquarters (lambsquarters [15]): 3 (Herbicidal rate of 40% or more and less than 70%); herbicidal effect, F: southern crabgrass (southern crabgrass [16]): 4 (Herbicidal rate of 70% or more and less than 90%); herbicidal effect, G: green foxtail (green foxtail [17]): 4 (Herbicidal rate of 70% or more and less than 90%); herbicidal effect, M: velvetleaf (velvetleaf [18]): 1 (Herbicidal rate of 5% or more and less than 20%); herbicidal effect, N: redroot pigweed (redroot pigweed [19]): 4 (Herbicidal rate of 70% or more and less than 90%)

Reference: patent publication US20230085307A1, “PYRIDAZINONE COMPOUND AND HERBICIDE” (NISSAN CHEMICAL CORPORATION, priority 2019, published 2023)
